We go through five compounds from PubChem BioAssay AID1963420 (Molecular Pharmacology Branch, DTP, NCI, 2024).

The experiment relates to 494315-158-R-J1-PDC complex spheroid growth, percent test/control. Briefly: Anticancer human tumor 494315-158-R-J1-PDC patient-derived soft tissue sarcoma cell line growth inhibition [Asc]. The following applies: for viability, T/C: stronger effect = lower value. The gist of the method:
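Stromal components (HUVEC and hMSC) are co-assembled with the cancer cells into multicellular spheroids. Drugs are then added singly or paired, at concentrations falling by half-log increments from a clinically achievable maximum, capped at 10 microM without known Cmax.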

Where [1] appears, read: curve of first compound, second compound 0.01 µM.
The mark [2] stands for this setting: curve of first compound, second compound 0.0316 µM.
[3] abbreviates: curve of first compound, second compound 0.1 µM.
[4] abbreviates: curve of first compound, second compound 0.316 µM.
The mark [5] stands for this setting: curve of first compound, second compound 1 µM.
[6] abbreviates: second compound 0.01 µM, first compound 0.0316 µM.
Setting [7] is: second compound 0.01 µM, first compound 0.1 µM.
Where [8] appears, read: second compound 0.01 µM, first compound 0.316 µM.
The mark [9] stands for this setting: second compound 0.01 µM, first compound 1 µM.
Where [10] appears, read: second compound 0.01 µM, first compound 3.16 µM.
Setting [11] is: second compound 0.01 µM, first compound 10 µM.
[12] abbreviates: second compound 0.0316 µM, first compound 0.0316 µM.
[13] abbreviates: second compound 0.0316 µM, first compound 0.1 µM.
Where [14] appears, read: second compound 0.0316 µM, first compound 0.316 µM.
The mark [15] stands for this setting: second compound 0.0316 µM, first compound 1 µM.
The mark [16] stands for this setting: second compound 0.0316 µM, first compound 3.16 µM.
The mark [17] stands for this setting: second compound 0.0316 µM, first compound 10 µM.
[18] abbreviates: second compound 0.1 µM, first compound 0.0316 µM.
Where [19] appears, read: second compound 0.1 µM, first compound 0.1 µM.
Where [20] appears, read: second compound 0.1 µM, first compound 0.316 µM.
Setting [21] is: second compound 0.1 µM, first compound 1 µM.
Where [22] appears, read: second compound 0.1 µM, first compound 3.16 µM.
Setting [23] is: second compound 0.1 µM, first compound 10 µM.
[24] abbreviates: second compound 0.316 µM, first compound 0.0316 µM.
Setting [25] is: second compound 0.316 µM, first compound 0.1 µM.
The mark [26] stands for this setting: second compound 0.316 µM, first compound 0.316 µM.
Where [27] appears, read: second compound 0.316 µM, first compound 1 µM.
[28] abbreviates: second compound 0.316 µM, first compound 3.16 µM.
The mark [29] stands for this setting: second compound 0.316 µM, first compound 10 µM.
Setting [30] is: second compound 1 µM, first compound 0.0316 µM.
The mark [31] stands for this setting: second compound 1 µM, first compound 0.1 µM.
Where [32] appears, read: second compound 1 µM, first compound 0.316 µM.
[33] abbreviates: second compound 1 µM, first compound 1 µM.
Setting [34] is: second compound 1 µM, first compound 3.16 µM.
[35] abbreviates: second compound 1 µM, first compound 10 µM.

Values joined by “and” are separate entries in the source; they are usually repeats but may differ in a detail not shown here. Equal values may be shown once.
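Note: compound exposure lasted seven days after spheroids formed for three days.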

One may read the IC50 as the midpoint of a concentration-inhibition curve. In general, viability, T/C refers to the result in the treated group divided by that in the control group, in per cent. `O=C(c1cc(Cc2n[nH]c(=O)c3ccccc23)ccc1F)N1CCN(C(=O)C2CC2)CC1` + CNC(C)C(=O)NC1CN(S(=O)(=O)c2cccc(S(=O)(=O)N3CCC4CCC(C(=O)NC(c5ccccc5)c5ccccc5)N4C(=O)C(NC(=O)C(C)NC)C3)c2)CCC2CCC(C(=O)NC(c3ccccc3)c3ccccc3)N2C1=O: the IC50 runs as follows: under setting [1], 2430 nM; under setting [2], 384 nM; under setting [3], under 31.6 nM; under setting [4], under 31.6 nM; under setting [5], under 31.6 nM. Also, the viability, T/C runs as follows: under setting [6], 66.3%; under setting [7], 73.2%; under setting [8], 60.3%; under setting [9], 70.3%; under setting [10], 44.8%; under setting [11], 27.5%. In addition, the viability, T/C under setting [12] is 51.8%; the viability, T/C under setting [13] is 52%; the viability, T/C under setting [14] is 52.1%; the viability, T/C under setting [15] was 43.9%; the viability, T/C under setting [16] was 41.9%; the viability, T/C under setting [17] was 20%. For the same compound, the viability, T/C runs as follows: under setting [18], 41%; under setting [19], 46.4%; under setting [20], 46.3%; under setting [21], 39.1%; under setting [22], 33.2%; under setting [23], 19.8%. Besides, the viability, T/C under setting [24] was 37.2%; the viability, T/C under setting [25] was 38%; the viability, T/C under setting [26] was 42.8%; the viability, T/C under setting [27] was 35.8%; the viability, T/C under setting [28] is 27.5%; the viability, T/C under setting [29] is 14.3%. Moreover, the viability, T/C is 33.8% under setting [30]; 39.4% under setting [31]; 40.2% under setting [32]; 31.8% under setting [33]; 22.3% under setting [34]; 13.6% under setting [35].

As to `O=C(c1cc(Cc2n[nH]c(=O)c3ccccc23)ccc1F)N1CCN(C(=O)C2CC2)CC1`, the viability, T/C (compound 0.0316 µM) was 83.7% and 85.7% and 88.2%; the viability, T/C (compound 0.1 µM) was 101% and 95% and 86.5%; the viability, T/C (compound 0.316 µM) was 76.7% and 88.8% and 89.9%; the viability, T/C (compound 1 µM) was 83.8% and 84.5% and 81.4%; the viability, T/C (compound 3.16 µM) is 69.5% and 85.8% and 85.3%; the viability, T/C (compound 10 µM) was 52.3% and 55.7% and 50%. The IC50 (curve of compound) was over 10000 nM.

Turning to `Cn1ncnc1[C@H]1c2n[nH]c(=O)c3cc(F)cc(c23)N[C@@H]1c1ccc(F)cc1` + Cc1c(S(C)(=O)=O)c(-c2cc(F)cc(N3CCN(c4ccc(NS(=O)(=O)c5ccc(NC(CCN6CCC(C(=O)OCCCP(=O)(O)O)CC6)CSc6ccccc6)c(S(=O)(=O)C(F)(F)F)c5)cc4)CC3)c2)c(-c2ccc(Cl)cc2)n1C(C)C, the 50% inhibitory concentration (IC50) is, setting by setting: under setting [3], 26.8 nM; under setting [4], 18.1 nM; under setting [5], 4.34 nM; (curve of first compound, second compound 3.16 µM) 1.3 nM; (curve of first compound, second compound 10 µM) 4.61 nM. The viability, T/C is 83.2% (second compound 0.1 µM, first compound 0.000316 µM); 76% (second compound 0.1 µM, first compound 0.001 µM); 62.2% (second compound 0.1 µM, first compound 0.00316 µM); 56.5% (second compound 0.1 µM, first compound 0.01 µM); 48.7% under setting [18]; 46.1% under setting [19]. Besides, the viability, T/C (second compound 0.316 µM, first compound 0.000316 µM) is 74.6%; the viability, T/C (second compound 0.316 µM, first compound 0.001 µM) was 63.1%; the viability, T/C (second compound 0.316 µM, first compound 0.00316 µM) is 63.9%; the viability, T/C (second compound 0.316 µM, first compound 0.01 µM) was 44.6%; the viability, T/C under setting [24] is 50.9%; the viability, T/C under setting [25] is 48.9%. The viability, T/C is, setting by setting: (second compound 1 µM, first compound 0.000316 µM) 56.4%; (second compound 1 µM, first compound 0.001 µM) 59%; (second compound 1 µM, first compound 0.00316 µM) 52%; (second compound 1 µM, first compound 0.01 µM) 43%; under setting [30], 38.9%; under setting [31], 35%. The viability, T/C reads like this: (second compound 3.16 µM, first compound 0.000316 µM) 56.1%; (second compound 3.16 µM, first compound 0.001 µM) 53.5%; (second compound 3.16 µM, first compound 0.00316 µM) 40.3%; (second compound 3.16 µM, first compound 0.01 µM) 31.6%; (second compound 3.16 µM, first compound 0.0316 µM) 32.9%; (second compound 3.16 µM, first compound 0.1 µM) 25.4%. Also, the viability, T/C runs as follows: (second compound 10 µM, first compound 0.000316 µM) 66.1%; (second compound 10 µM, first compound 0.001 µM) 71.2%; (second compound 10 µM, first compound 0.00316 µM) 53.3%; (second compound 10 µM, first compound 0.01 µM) 45.2%; (second compound 10 µM, first compound 0.0316 µM) 38.4%; (second compound 10 µM, first compound 0.1 µM) 45.7%.

Consider `Cc1nc(N2CCC3(CC2)COC(C)C3N)c(CO)nc1Sc1ccnc(N)c1Cl` (centres undefined), for which the viability, T/C runs as follows: (compound 0.00949 µM) 105% and 96.7% and 89%; (compound 0.03 µM) 92.1% and 86.9% and 81.2%; (compound 0.0949 µM) 85.7% and 86% and 78.7%; (compound 0.3 µM) 92% and 75.2% and 66.9%; (compound 0.949 µM) 71.2% and 54.1% and 58.9%; (compound 3 µM) 54.9% and 42.4% and 43.2%. For the same compound, the IC50 (curve of compound) was > 3000 nM and 1520 nM and 1800 nM.

Consider `C=CC(=O)N1CCN(c2nc(=O)n(-c3c(C)ccnc3C(C)C)c3nc(-c4c(O)cccc4F)c(F)cc23)C(C)C1` (centres undefined) + CNC(C)C(=O)NC1CN(S(=O)(=O)c2cccc(S(=O)(=O)N3CCC4CCC(C(=O)NC(c5ccccc5)c5ccccc5)N4C(=O)C(NC(=O)C(C)NC)C3)c2)CCC2CCC(C(=O)NC(c3ccccc3)c3ccccc3)N2C1=O, for which the IC50 was over 10000 nM under setting [1]; over 10000 nM under setting [2]; over 10000 nM under setting [3]; under 31.6 nM under setting [4]; under 31.6 nM under setting [5]. In addition, the viability, T/C reads like this: under setting [6], 72.5%; under setting [7], 70.5%; under setting [8], 74.1%; under setting [9], 69.5%; under setting [10], 78.4%; under setting [11], 57.8%. Moreover, the viability, T/C was 58.2% under setting [12]; 60.8% under setting [13]; 57.6% under setting [14]; 73.5% under setting [15]; 59.5% under setting [16]; 45.2% under setting [17]. Besides, the viability, T/C was 53.2% under setting [18]; 54% under setting [19]; 62.1% under setting [20]; 55.4% under setting [21]; 60.3% under setting [22]; 42.5% under setting [23]. In addition, the viability, T/C is 49% under setting [24]; 50.1% under setting [25]; 46.2% under setting [26]; 45.8% under setting [27]; 51.5% under setting [28]; 42.2% under setting [29]. Moreover, the viability, T/C by setting is: under setting [30], 45.2%; under setting [31], 49.7%; under setting [32], 44.9%; under setting [33], 35.3%; under setting [34], 38.8%; under setting [35], 40.9%.
